Experimental data as given in US20260191793A1, “HBV SPECIFIC EXOSOMES AND USES THEREOF” (priority 2022, published 2026).

How the values were obtained:
[1] = system: HBV replication in HepDE19 cells; assay: Suppression of HBV replication in HepDE19 cells by synthetic gRNA/Cas9 RNPs, one-time transfection (ELISA, real-time PCR, RNAscope); format: cell-based, Hepatitis B virus (HBV); conditions: Tet-free medium 3 days; for HBV mRNA / HBV RNA level (RNAscope) / cccDNA level / pgRNA level / total HBV DNA level: HepDE19 cells, vs gRNAc; for cccDNA level: one-time transfection; for cccDNA level / pgRNA level / total HBV DNA level: real-time PCR; for HBeAg level / HBsAg level: HepDE19 supernatant, ELISA, vs scrambled gRNAc
Method: The HepDE19 cell line is tetracycline-controlled HBV stable cells maintained in the presence of 500 μg/ml G418 and 1 μg/ml tetracycline (Tet). Upon withdrawing Tet from the culture fluid of HepDE19 cells, pgRNA transcription, HBV DNA replication, cccDNA formation, and HBV e antigen (HBeAg) production gradually increase in a time-dependent manner. To induce HBV replication, the cells were cultured in a Tet-free medium for 0-10 days, followed by measuring the expression of HBV antigens, HBV cccDNA, and pgRNA using methods previously described. For cell transfection, HepDE19 cells were cultured in Tet-free medium for 2 days. The gRNA/Cas9 RNPs and Lipofectamine CRISPRMAX reagents were prepared in two separate tubes following the manufacturer's instructions. Briefly, 125 ng gRNA, 500 ng GeneArt Platinum Cas9 nuclease, and 1 μl Cas9 Plus reagents were mixed in one tube, and 1.5 μl Lipofectamine CRISPRMAX reagent was added in a separate tube. The gRNA/Cas9 RNP solution was then transferred to the tube containing the Lipofectamine CRISPRMAX solution. The mixture was vortexed and incubated at 25° C. for 10 min to form the gRNA/Cas9 RNP/Lipofectamine CRISPRMAX complex. Meanwhile, HepDE19 cells were seeded in a 24-well plate at 2.0×10^5 cells per well. The gRNA/Cas9 RNP/Lipofectamine CRISPRMAX complex was then added directly to the cell suspension, and the cells were incubated for 72 h, followed by assessing HBV replication with Tet-free medium as described above.
The levels of HBsAg and HBeAg in the supernatants of cell cultures were determined by ELISA (Cat #KA0286 and NBP2-600029, Novus Biologicals, Littleton, CO) according to the manufacturer's protocol. The optical density of antigen levels was measured at 450 nm using a microplate spectrophotometer. The samples were run in triplicate, and the experiments were repeated at least three times.
Total RNA was extracted from the cell pellets by the RNeasy Mini kit (Cat #74104, QIAGEN, Germantown, MD), and 1 μg RNA was converted to cDNA using the Applied Biosystems High-Capacity cDNA Reverse Transcription Kit (Cat #43-688-14, ThermoFisher, Waltham, MA). Quantitative real-time PCR (real-time-qPCR) was performed using iTaq Universal SYBR Green Supermix (Cat #1725124, Bio-Rad, Hercules, CA). The PCR primers were: HBV mRNA forward, 5′-[…]-3′ (SEQ ID NO: 52), reverse, 5′-[…]-3′ (SEQ ID NO: 53); HBV pgRNA forward 5′-[…]-3′ (SEQ ID NO: 54), reverse 5′-[…]-3′ (SEQ ID NO: 55); and GAPDH forward 5′-[…]-3′ (SEQ ID NO: 56), reverse 5′-[…]-3′ (SEQ ID NO: 57). The gene expression levels were determined by the […] method and values were normalized to GAPDH expression as an internal control.
Total and protein-free HBV DNAs were extracted from whole cell lysate using the Hirt DNA method according to a previously published protocol. For HBV cccDNA analysis, the protein-free DNA was treated with 10 units of T5 exonuclease (NEB) at 37° C. for 30 min, followed by 95° C. for 5 min, and diluted 4-fold with nuclease-free water. Next, the cccDNA was cleaned with a DNA clean and concentrator kit (ZYMO Research, Irvine, CA) and used for PCR. HBV total DNA and cccDNA were analyzed by real-time PCR using a TaqMan PCR assay. The primers and probe used to amplify HBV total DNA were: HBV total DNA forward: 5′-[…]-3′ (SEQ ID NO: 58), reverse 5′-[…]-3′ (SEQ ID NO: 59), and internal probe: 5′-FAM-[…]-TAMRA-3′ (SEQ ID NO: 60). The primers and probe used to amplify HBV cccDNA (Genotype D, subtype ayw) were: forward: 5′-[…]-3′ (SEQ ID NO: 61), reverse 5′-[…]-3′ (SEQ ID NO: 62), and internal probe 5′-FAM-[…]-TAMRA-3′ (SEQ ID NO: 63). The PCR reactions were performed in 20 μl volumes and contained 2 μl DNA. The PCR conditions were: 95° C. for 10 min, followed by 45 cycles of 95° C. for 15 s and 64° C. for 30 s. The DNA levels were determined by the […] method and values were normalized to the control group. […]

[2] = system: HBV cccDNA; assay: HBV-infected HepG2-NTCP cells incubated with exosomes packaged with gRNA/Cas9 RNPs, HBV cccDNA; format: cell-based, Hepatitis B virus (HBV); conditions: delivery by engineered exosomes, 3 days (1×10^8 particles packaged with 40 μM gRNA/Cas9 RNPs)
Method: HepG2-NTCP cells were infected for 6 days with the supernatants of HepDE19 cells. Next, HepG2-NTCP cells were transfected for 3 days with gRNA5, gRNA9, gRNA5+gRNA9, or gRNAc RNPs (FIG. 4A) or incubated with exosomes carrying gRNA5, gRNA9, gRNA5+gRNA9, or gRNAc RNPs (1×10^8 particles packaged with 40 μM gRNA/Cas9 RNPs) (FIG. 4B), followed by measuring HBV cccDNA.
To test whether the synthetic gRNA/Cas9 can reduce newly formed HBV cccDNA in HepG2-NTCP cells, the cells with HBV particle-containing supernatants from HepDE19 cells (supernatants harvested 6 days after culture in Tet-free media) were infected. The HepG2-NTCP cells were infected with HBV particles for 6 days and then transfected with gRNA5, gRNA9, gRNA5 plus gRNA9 (in combination), or gRNAc RNPs for 3 days, followed by measuring HBV cccDNA. In another experiment, the infected HepG2-NTCP cells were incubated for 3 days with exosomes packaged with gRNA5, gRNA9, gRNA5 plus gRNA9 (in combination), or gRNAc RNPs, followed by measuring HBV cccDNA.

Row | Sequence | HBV mRNA / HBV RNA level (RNAscope) [1] | cccDNA level [1] | pgRNA level [1] | total HBV DNA level [1] | HBeAg level [1] | HBsAg level [1] | HBV cccDNA levels [2]
1 | GGTCTCCATGCGACGTGCAGNGG [gRNA9] | significant decreases | significant decreases | significant decreases | significant decreases | significant decreases | significant decreases | significantly reduced
2 | GTTATCGCTGGATGTGTCTGNGG (guide GUUAUCGCUGGAUGUGUCUGNGG; complexed with Cas9 protein, chemistry not fully specified) [gRNA5, tested as synthetic gRNA/Cas9 RNP] | significant decreases | significant decreases | significant decreases | significant decreases | significant decreases | significant decreases | significantly reduced
